Laboratory results as given in article PMC9442914, “Antidiabetic potential of Lysiphyllum strychnifolium (Craib) A. Schmitz compounds in human intestinal epithelial Caco-2 cells and molecular docking-based approaches” (BMC Complementary Medicine and Therapies, 2022).
Entries after “also recorded” stand apart in the source; their conditions may differ.

Tests used:
GLUT5 mRNA = experiment: Transcription of GLUT5 mRNA in Caco-2 cells (RT-PCR); assay type: cell-based, human; conditions: 62.50 µg/ml, normalized to GAPDH
Procedure: (§1) RNA was extracted from Caco-2 cells using an RNA extraction kit (QIAGEN, Hilden, Germany). Reverse transcription was performed with SuperScript III Reverse Transcriptionase (Thermo Fisher Scientific, Waltham, USA). cDNA was synthesized from 2 µg of total RNA according to the manufacturer’s instructions. Then, the cDNA was maintained at − 20°C for further analysis by real-time PCR. The specific primers used in the experiment were as follows: SGLT1, 5’-[…]-3’ (forward) and 3’-[…]-5’ (reverse); GLUT2, 5’-[…]-3’ (forward) and 3’-[…]-5’ (reverse); GLUT5, 5’- […]-3’ (forward) and 3’-[…]-5’ (reverse). All conditions were performed in triplicate with 3 independent experiments. The real-time qPCR mixture (10 µL) comprised 1 µL of DNA polymerase, template DNA (25 ng), 1 µL of DEPC, and 1.2 µL of forward and reverse primers. Thermal cycling (Applied Biosystems, Waltham, USA) consisted of (denaturation 95 °C for 20 s, annealing 63.3 °C for 30 s, and extension 72 °C for 20 s, 40 cycles. The gene expression data were normalized to the internal control gene GAPDH and then compared using comparative delta-delta Ct.

SGLT1 mRNA = experiment: Transcription of SGLT1 mRNA in Caco-2 cells (RT-PCR); assay type: cell-based, human; conditions: 62.50 µg/ml, normalized to GAPDH
Procedure: as §1

GLUT2 mRNA = experiment: Transcription of GLUT2 mRNA in Caco-2 cells (RT-PCR); assay type: cell-based, human; conditions: 62.50 µg/ml, normalized to GAPDH
Procedure: as §1

Caco-2 cells = experiment: Cell viability assay (MTT) in Caco-2 cells; assay type: cell-based, human; conditions: concentrations from 0 to 62.50 ug/ml, 24 h
Procedure: (§2) Caco-2 cells were obtained from the American Type Culture Collection (ATCC). The cells were cultured in DMEM with 10% FBS and 1% penicillin–streptomycin solution and were maintained at 37 °C in a humidified environment of 95% air and 5% CO2. For the viability test, the Caco-2 cells were seeded on 96-well plates, and 24-well Transwell plates were used to determine α-glucosidase inhibition. […] Fresh media was supplied to the cells every two days during this period.
Caco-2 cells were obtained from the American Type Culture Collection (ATCC). The cells were grown in complete medium (DMEM with 10% FBS, 100 units/mL penicillin, and 100 µg/mL streptomycin) and plated at a density of 10,000 cells per well in 96-well plates for 21 days. Then, the cells were treated with extracts at concentrations ranging from […] for another 24 h. DMSO (0.1%) was added to the control group. The MTT test was used to measure cell viability after treatment. In a 96-well plate, 100 µl of MTT at a concentration of 0.5 mg/ml was applied to each well. The MTT solution was withdrawn after 3 h of incubation at 37 °C, and formazan crystals were dissolved in 100 µl of DMSO. At 570 nm, the purple color that was generated was detected spectrophotometrically (with a reference OD of 690). Prism 6 software was used to calculate cell viability. The appropriate concentration of extracts was chosen for future experiments.

[1] = DPPH radical scavenging assay; conditions: mean ± SEM
Procedure: The method by Kumar, Sanjiv et al. was adopted for DPPH (2,2-diphenyl-1-picrylhydrazyl) assays with slight modifications. Briefly, DPPH solution (100 µl) and extract solution (100 µl) were added to a 96-well microplate and thoroughly mixed. The absorbance was measured at 517 nm after a 30-minute incubation time at room temperature.

[2] = test system: α-glucosidase in Caco-2 cells; experiment: Inhibition of α-glucosidase activity in Caco-2 cell monolayer; assay type: cell-based, human; conditions: apical side of Caco-2 monolayer; 31.25 and 62.50 ug/ml tested, concentration of the values not given
Procedure: as §2
Caco-2 cells were seeded in 24-transwell plates at a density of 10,000 cells per well for 21 days. The cells were washed in 1X PBS after the culture media was removed. […] At the same time, the lower chamber was filled with glucose-free medium (500 µl). Then, 50 µl of culture media from the upper chamber was taken and measured by the glucose oxidase method.

ABTS scavenging assay = conditions: mean ± SEM

Structure (SMILES)	Transcription of GLUT5 gene (mRNA) (GLUT5 mRNA)	Transcription of SGLT1 gene (mRNA) (SGLT1 mRNA)	Transcription of GLUT2 gene (mRNA) (GLUT2 mRNA)	Cytotoxicity to Caco-2 cells (MTT) (Caco-2 cells)	EC50 [1]	α-glucosidase activity compared with untreated cells [2]	EC50 (ABTS scavenging assay)
C[C@H]1O[C@H](O[C@H]2[C@H](O)[C@@H](O)[C@@H](O[C@H]3[C@H](O)[C@@H](O)C(O)O[C@@H]3CO)O[C@@H]2CO)[C@H](O)[C@@H](O)[C@@H]1N[C@H]1C=C(CO)[C@@H](O)[C@H](O)[C@H]1O (stereo partly drawn) [Acarbose, acarbose, reference compound]	downregulated	downregulated	downregulated				
C[C@@H]1O[C@@H](Oc2coc3cc(O)cc(O)c3c2=O)[C@H](O)[C@H](O)[C@H]1O [Compound 1, 3,5,7-trihydroxychromone-3-O-α-L-rhamnopyranoside]	downregulated	downregulated	downregulated	without cytotoxicity; also recorded: not cytotoxic	5.22 ± 0.2 µM	59.75%	10.3 ± 0.2 µM
O=C1O[C@H]([C@@H](O)CO)C(O)=C1O [Ascorbic acid, ascorbic acid, reference compound]					30.38 ± 0.18 µM		25.1 ± 0.19 µM
